Measurements published in ChEMBL document CHEMBL1926602, “Anisotropy studies of tRNA-T box antiterminator RNA complex in the presence of 1,4-disubstituted 1,2,3-triazoles” (Bioorg Med Chem Lett, 2011).

Legend:
[1] = test system: Nucleic Acid; test: Inhibition of A73U tRNA(Tyr)-5'Rhd-AM1A T box antiterminator RNA complex assessed as reduction in anisotrophy changes by at 100 uM by fluorescence anisotropy-based assay relative to untreated control; type: nucleic-acid assay
[2] = test system: Nucleic Acid; test: Stabilization of A73U tRNA(Tyr)-5'Rhd-AM1A T box antiterminator RNA complex assessed as increase in anisotrophy changes by at 100 uM by fluorescence anisotropy-based assay relative to untreated control; type: nucleic-acid assay

SMILES	inhibition [1] [%]	Activity [2] [%]
O=C(NCc1ccccc1)OCC(O)Cn1cc(CN2CCN(c3ccccc3)CC2)nn1 (stereo not given)	32	–
O=C(OCC(O)Cn1cc(CN2CCOCC2)nn1)C1CCCCC1 (stereo not given)	11	–
CCOC(=O)C1CCCN(Cc2cn(CC(O)COC(=O)NCc3ccccc3)nn2)C1 (stereo not given)	47	–
CN(CCc1ccccc1)Cc1cn(C2CCCCC2O)nn1 (stereo not given)	21	–
CC(C)CCN(C)Cc1cn(CC(O)COC(=O)C2CCCCC2)nn1 (stereo not given)	0	–
CCCCCCCC(=O)OCC(O)Cn1cc(CN2CCN(c3ccccc3)CC2)nn1 (stereo not given)	26	–
CN(CCc1ccccc1)Cc1cn(C2CCCCC2OC(=O)COc2ccccc2)nn1 (stereo not given)	32	–
CCOC(=O)C1CCCN(Cc2cn(CC(O)c3ccccc3)nn2)C1 (stereo not given)	–	6
CN(CCc1ccccc1)Cc1cn(CC(O)COC(=O)NCc2ccccc2)nn1 (stereo not given)	42	–
OC1CCCCC1n1cc(CN2CCOCC2)nn1 (stereo not given)	–	24
CCCCN(CCCC)Cc1cn(CC(O)COC(=O)NCc2ccccc2)nn1 (stereo not given)	42	–
O=C(OCC(O)Cn1cc(CN2CCN(c3ccccc3)CC2)nn1)c1ccccc1 (stereo not given)	11	–
CCCCN(CCCC)Cc1cn(CC(O)COC(=O)c2ccccc2)nn1 (stereo not given)	12	–
CCCCNC(=O)OCC(O)Cn1cc(CN2CCCC(C(=O)OCC)C2)nn1 (stereo not given)	24	–
CCOC(=O)C1CCCN(Cc2cn(C3CCCCC3OC(=O)Cc3ccccc3)nn2)C1 (stereo not given)	21	–
CCCCN(CCCC)Cc1cn(C2CCCCC2OC(=O)COc2ccccc2)nn1 (stereo not given)	26	–
CN(Cc1cn(C2CCCCC2OC(=O)c2ccccc2)nn1)CC1CCCCC1 (stereo not given)	32	–
O=C(OC1CCCCC1n1cc(CN2CCN(c3ccccc3)CC2)nn1)c1ccccc1 (stereo not given)	21	–
CCOC(=O)C1CCCN(Cc2cn(C3CCCCC3OC(=O)COc3ccccc3)nn2)C1 (stereo not given)	21	–
CCCCCCCC(=O)OCC(O)Cn1cc(CN2CCOCC2)nn1 (stereo not given)	0	–
CC(C)CCN(C)Cc1cn(C2CCCCC2O)nn1 (stereo not given)	42	–
OC(COCc1ccccc1)Cn1cc(CN2CCOCC2)nn1 (stereo not given)	–	12
O=C(OC1CCCCC1n1cc(CN2CCOCC2)nn1)c1ccccc1 (stereo not given)	–	6
OC1CCCCC1n1cc(CN2CCN(c3ccccc3)CC2)nn1 (stereo not given)	47	–
CCOC(=O)C1CCCN(Cc2cn(CC(O)COC(=O)c3ccccc3)nn2)C1 (stereo not given)	6	–
CC(C)CCN(C)Cc1cn(CC(O)c2ccccc2)nn1 (stereo not given)	58	–
O=C(OCC(O)Cn1cc(CN2CCOCC2)nn1)c1ccccc1 (stereo not given)	5	–

SMILES	inhibition [1] [%]	Activity [2] [%]
CCCCN(CCCC)Cc1cn(C2CCCCC2OC(=O)Cc2ccccc2)nn1 (stereo not given)	53	–
CN(Cc1cn(CC(O)COC(=O)c2ccccc2)nn1)CC1CCCCC1 (stereo not given)	6	–
CCCCC(O)Cn1cc(CN(C)CCC(C)C)nn1 (stereo not given)	47	–
OC(Cn1cc(CN2CCN(c3ccccc3)CC2)nn1)c1ccccc1 (stereo not given)	32	–
CCOC(=O)C1CCCN(Cc2cn(C3CCCCC3O)nn2)C1 (stereo not given)	16	–
CCCCC(O)Cn1cc(CN2CCC(c3ccccc3)CC2)nn1 (stereo not given)	16	–
O=C(NCc1ccccc1)OCC(O)Cn1cc(CN2CCC(c3ccccc3)CC2)nn1 (stereo not given)	29	–
CC(C)CCN(C)Cc1cn(CC(O)COC(=O)c2ccccc2)nn1 (stereo not given)	0	–
CCCCC(O)Cn1cc(CN(C)CC2CCCCC2)nn1 (stereo not given)	47	–
CCCCCCCC(=O)OCC(O)Cn1cc(CN(C)CCCc2ccccc2)nn1 (stereo not given)	12	–
CN(Cc1cn(CC(O)COC(=O)C2CCCCC2)nn1)CC1CCCCC1 (stereo not given)	18	–
CCCCC(O)Cn1cc(CN2CCN(c3ccccc3)CC2)nn1 (stereo not given)	47	–
CN(CCCc1ccccc1)Cc1cn(CC(O)COC(=O)c2ccccc2)nn1 (stereo not given)	12	–
CN(CCCc1ccccc1)Cc1cn(C2CCCCC2OC(=O)COc2ccccc2)nn1 (stereo not given)	42	–
CCCCNC(=O)OCC(O)Cn1cc(CN(CCCC)CCCC)nn1 (stereo not given)	–	18
CN(CCCc1ccccc1)Cc1cn(CC(O)COCc2ccccc2)nn1 (stereo not given)	18	–
CN(Cc1cn(CC(O)COC(=O)NCc2ccccc2)nn1)CC1CCCCC1 (stereo not given)	32	–
CCOC(=O)C1CCCN(Cc2cn(C3CCCCC3OC(=O)c3ccccc3)nn2)C1 (stereo not given)	11	–
CCCCN(CCCC)Cc1cn(CC(O)COCc2ccccc2)nn1 (stereo not given)	6	–
CN(Cc1cn(C2CCCCC2OC(=O)COc2ccccc2)nn1)CC1CCCCC1 (stereo not given)	37	–
CCCCCCCC(=O)OCC(O)Cn1cc(CN(CCCC)CCCC)nn1 (stereo not given)	71	–
O=C(COc1ccccc1)OC1CCCCC1n1cc(CN2CCC(c3ccccc3)CC2)nn1 (stereo not given)	42	–
CCCCC(O)Cn1cc(CN(CCCC)CCCC)nn1 (stereo not given)	18	–
O=C(COc1ccccc1)OC1CCCCC1n1cc(CN2CCN(c3ccccc3)CC2)nn1 (stereo not given)	37	–
CCCCC(O)Cn1cc(CN(C)CCc2ccccc2)nn1 (stereo not given)	29	–
CN(Cc1cn(CC(O)COCc2ccccc2)nn1)CC1CCCCC1 (stereo not given)	6	–
CC(C)CCN(C)Cc1cn(CC(O)COC(=O)NCc2ccccc2)nn1 (stereo not given)	26	–

SMILES	inhibition [1] [%]	Activity [2] [%]
CCCCNC(=O)OCC(O)Cn1cc(CN2CCOCC2)nn1 (stereo not given)	5	–
O=C(COc1ccccc1)OC1CCCCC1n1cc(CN2CCOCC2)nn1 (stereo not given)	5	–
OC(COCc1ccccc1)Cn1cc(CN2CCN(c3ccccc3)CC2)nn1 (stereo not given)	37	–
CCCCC(O)Cn1cc(CN(C)CCCc2ccccc2)nn1 (stereo not given)	37	–
CCCCNC(=O)OCC(O)Cn1cc(CN(C)CCC(C)C)nn1 (stereo not given)	24	–
CCCCC(O)Cn1cc(CN2CCCC(C(=O)OCC)C2)nn1 (stereo not given)	53	–
CN(CCCc1ccccc1)Cc1cn(CC(O)COC(=O)NCc2ccccc2)nn1 (stereo not given)	79	–
CN(Cc1ccccc1)Cc1cn(CC(O)c2ccccc2)nn1 (stereo not given)	32	–
O=C(Cc1ccccc1)OC1CCCCC1n1cc(CN2CCOCC2)nn1 (stereo not given)	–	6
CCCCNC(=O)OCC(O)Cn1cc(CN2CCN(c3ccccc3)CC2)nn1 (stereo not given)	11	–
CN(Cc1cn(C2CCCCC2O)nn1)CC1CCCCC1 (stereo not given)	47	–
OC(Cn1cc(CN2CCOCC2)nn1)c1ccccc1 (stereo not given)	–	6
CN(Cc1cn(C2CCCCC2OC(=O)Cc2ccccc2)nn1)CC1CCCCC1 (stereo not given)	5	–
CC(C)CCN(C)Cc1cn(C2CCCCC2OC(=O)c2ccccc2)nn1 (stereo not given)	26	–
CCOC(=O)C1CCCN(Cc2cn(CC(O)COCc3ccccc3)nn2)C1 (stereo not given)	26	–
CCCCN(CCCC)Cc1cn(CC(O)COC(=O)C2CCCCC2)nn1 (stereo not given)	12	–
CC(C)CCN(C)Cc1cn(C2CCCCC2OC(=O)COc2ccccc2)nn1 (stereo not given)	59	–
CCOC(=O)C1CCCN(Cc2cn(CC(O)COC(=O)C3CCCCC3)nn2)C1 (stereo not given)	–	6
CCCCNC(=O)OCC(O)Cn1cc(CN(C)CC2CCCCC2)nn1 (stereo not given)	12	–
OC1CCCCC1n1cc(CN2CCC(c3ccccc3)CC2)nn1 (stereo not given)	42	–
CN(CCc1ccccc1)Cc1cn(CC(O)COCc2ccccc2)nn1 (stereo not given)	18	–
CCCCC(O)Cn1cc(CN2CCOCC2)nn1 (stereo not given)	0	–
CCCCN(CCCC)Cc1cn(C2CCCCC2O)nn1 (stereo not given)	32	–
O=C(OC1CCCCC1n1cc(CN2CCC(c3ccccc3)CC2)nn1)c1ccccc1 (stereo not given)	16	–
CN(Cc1cn(CC(O)c2ccccc2)nn1)CC1CCCCC1 (stereo not given)	–	6
CN(CCc1ccccc1)Cc1cn(CC(O)COC(=O)c2ccccc2)nn1 (stereo not given)	0	–
